{
  "source": "paper PMC2935846",
  "about": "(Journal of the American Chemical Society, 2009)",
  "key": {"E. coli cells": {"tested_on": "E. coli cells", "test": "SYTOX Green uptake", "conditions": "5 μM peptide; for SYTOX Green influx into E. coli (in words): E. coli cells in PBS"}, "[1]": {"tested_on": "E. coli cytoplasmic membrane", "test": "Membrane depolarization, diSC3", "type": "cell-based, Escherichia coli", "conditions": "E. coli 2 × 10^7 cells/mL, 50 nM diSC3(5)"}, "C. neoformans cells": {"tested_on": "C. neoformans cells", "test": "SYTOX Green uptake", "type": "cell-based, Cryptococcus neoformans", "conditions": "5 μM peptide, 2 × 10^7 cells/mL in PBS, 1 μM SYTOX Green"}, "[2]": {"test": "Leakage of terbium from lipid vesicles", "conditions": "peptide:lipid 1:100, method as in earlier work"}},
  "data": [
    {"smiles": "CC1(C)S[C@@H]2[C@H](NC(=O)[C@H](N)c3ccccc3)C(=O)N2[C@H]1C(=O)O", "note": "[ampicillin]", "values": [
      {"measurement": "SYTOX Green influx into E. coli (in words)", "setting": "E. coli cells", "value": "no effect"}
    ]},
    {"smiles": "CC[C@H](C)[C@H](NC(=O)CN)C(=O)NCC(=O)N[C@@H](C)C(=O)N[C@H](C(=O)N[C@@H](CC(C)C)C(=O)N[C@@H](CCCCN)C(=O)N[C@H](C(=O)N[C@@H](CC(C)C)C(=O)N[C@H](C(=O)N[C@H](C(=O)NCC(=O)N[C@@H](CC(C)C)C(=O)N1CCC[C@H]1C(=O)N[C@@H](C)C(=O)N[C@@H](CC(C)C)C(=O)N[C@H](C(=O)N[C@@H](CO)C(=O)N[C@@H](Cc1c[nH]c2ccccc12)C(=O)N[C@H](C(=O)N[C@@H](CCCCN)C(=O)N[C@@H](CCCNC(=N)N)C(=O)N[C@@H](CCCCN)C(=O)N[C@@H](CCCNC(=N)N)C(=O)N[C@@H](CCC(N)=O)C(=O)N[C@@H](CCC(N)=O)C(N)=O)[C@@H](C)CC)[C@@H](C)CC)[C@@H](C)O)[C@@H](C)O)C(C)C)C(C)C", "note": "[Melittin]", "values": [
      {"measurement": "time of membrane potential dissipation", "setting": "[1]; 5 μM peptide, 25°C", "value": "less than 30 seconds"},
      {"measurement": "permeabilization of fungal cells, SYTOX Green (in words)", "setting": "C. neoformans cells", "value": "completely permeabilizes the fungal cells in just a few minutes"},
      {"measurement": "% of Tb leakage, P:L 1:100", "setting": "[2]", "value": 100, "unit": "%"},
      {"measurement": "time to 50% of the maximum SYTOX Green uptake", "setting": "E. coli cells; E. coli in PBS", "value": "about 15 minutes"},
      {"measurement": "time to complete SYTOX Green leakage", "setting": "E. coli cells; E. coli in PBS", "value": "≤ 25", "unit": "min"}
    ]},
    {"smiles": "CC(C)[C@@H]1NC(=O)[C@H](C)OC(=O)[C@@H](C(C)C)NC(=O)[C@@H](C(C)C)OC(=O)[C@H](C(C)C)NC(=O)[C@H](C)OC(=O)[C@@H](C(C)C)NC(=O)[C@@H](C(C)C)OC(=O)[C@H](C(C)C)NC(=O)[C@H](C)OC(=O)[C@@H](C(C)C)NC(=O)[C@@H](C(C)C)OC1=O", "note": "[valinomycin]", "values": [
      {"measurement": "collapse of the membrane potential (in words)", "setting": "[1]; 40 μM", "value": "Complete collapse of the membrane potential"}
    ]},
    {"smiles": "CC[C@H](C)[C@H](N)C(=O)N[C@@H](CC(C)C)C(=O)N1CCC[C@H]1C(=O)N[C@@H](Cc1c[nH]c2ccccc12)C(=O)N[C@@H](CCCCN)C(=O)N[C@@H](Cc1c[nH]c2ccccc12)C(=O)N1CCC[C@H]1C(=O)N[C@@H](Cc1c[nH]c2ccccc12)C(=O)N[C@@H](Cc1c[nH]c2ccccc12)C(=O)N1CCC[C@H]1C(=O)N[C@@H](Cc1c[nH]c2ccccc12)C(=O)N[C@@H](CCCNC(=N)N)C(=O)N[C@@H](CCCNC(=N)N)C(N)=O", "note": "[Indolicidin]", "values": [
      {"measurement": "% of Tb leakage, P:L 1:100", "setting": "[2]", "value": 8, "unit": "%"},
      {"measurement": "SYTOX Green influx into E. coli (in words)", "setting": "E. coli cells", "value": "only a very small amount of dye influx"}
    ]}
  ]
}
